{"source": "patent US7449546B2", "about": "“Method for extending storage of glutathione solutions and methods for treating Parkinson's disease with said stored glutathione solutions” (Kromar Medical Corporation, priority 2001, dated 2008)", "key": {"[1]": {"conditions": "for [G-SH]/[G-SH]0: storage at 5° C."}, "liver cancer": {"tested_on": "liver cancer", "conditions": "oral, daily amount of 5,000 mg, eight patients; cited from earlier work"}, "[2]": {"conditions": "for [G-SH]/[G-SH]0: storage at 25° C.", "protocol": "This solution was stored at room temperature (25° C.) for 74 days."}, "[3]": {"conditions": "solution temperature lowered by 20° C. from room temperature"}}, "note": "Where two headings read alike, the source gives them in different places."}
{"molecule": "N[C@@H](CCC(=O)N[C@@H](CS)C(=O)NCC(=O)O)C(=O)O", "note": "[reduced glutathione]", "values": [{"measurement": "dimerization of glutathione", "setting": "[1]; [3]", "value": "essentially stopped"}, {"measurement": "storage period of the reduced glutathione solution", "setting": "[1]; [3]", "value": "significantly greater than four months"}, {"measurement": "[G-SH]/[G-SH]0", "setting": "[1]; 1 day, 189 mg/ml, pH 6.4", "value": 1.02}, {"measurement": "[G-SH]/[G-SH]0", "setting": "[1]; 2 days, 189 mg/ml, pH 6.4", "value": 1.01}, {"measurement": "[G-SH]/[G-SH]0", "setting": "[1]; 3 days, 189 mg/ml, pH 6.4", "value": 1.01}, {"measurement": "[G-SH]/[G-SH]0", "setting": "[1]; 7 days, 189 mg/ml, pH 6.4", "value": 1.02}, {"measurement": "[G-SH]/[G-SH]0", "setting": "[1]; 14 days, 189 mg/ml, pH 6.4", "value": 1.00}, {"measurement": "[G-SH]/[G-SH]0", "setting": "[1]; 21 days, 189 mg/ml, pH 6.4", "value": 0.99}, {"measurement": "[G-SH]/[G-SH]0", "setting": "[1]; 28 days, 189 mg/ml, pH 6.4", "value": 1.02}, {"measurement": "[G-SH]/[G-SH]0", "setting": "[1]; 56 days, 189 mg/ml, pH 6.4", "value": 1.00}, {"measurement": "[G-SH]/[G-SH]0", "setting": "[1]; 84 days, 189 mg/ml, pH 6.4", "value": 1.00}, {"measurement": "[G-SH]/[G-SH]0", "setting": "[1]; 112 days, 189 mg/ml, pH 6.4", "value": 0.98}, {"measurement": "decrease of reduced glutathione concentration over time", "setting": "[1]; stored at 5° C., monitored for four months, 189 mg/ml, 0.005M octylammonium orthophosphate, pH 6.4", "value": "no decrease over time"}, {"measurement": "effects in patients with liver cancer", "setting": "liver cancer", "value": "modest effects in women but not in men"}, {"measurement": "concentration of reduced glutathione relative to its initial value", "setting": "[2]; room temperature (25° C.), within three weeks, 180 mg/ml, pH 6.4", "value": 90, "unit": "%"}, {"measurement": "safe storage time in aqueous solution", "setting": "[2]; room temperature, absence of oxidation catalysts, criterion at least 90% of initial concentration", "value": "cannot be safely stored in aqueous solution at room temperature for longer than three weeks"}, {"measurement": "[G-SH]/[G-SH]0", "setting": "[2]; 1 day, 180 mg/ml, pH 6.4", "value": 0.94}, {"measurement": "[G-SH]/[G-SH]0", "setting": "[2]; 2 days, 180 mg/ml, pH 6.4", "value": 0.99}, {"measurement": "[G-SH]/[G-SH]0", "setting": "[2]; 3 days, 180 mg/ml, pH 6.4", "value": 0.99}, {"measurement": "[G-SH]/[G-SH]0", "setting": "[2]; 7 days, 180 mg/ml, pH 6.4", "value": 0.98}, {"measurement": "[G-SH]/[G-SH]0", "setting": "[2]; 14 days, 180 mg/ml, pH 6.4", "value": 0.95}, {"measurement": "[G-SH]/[G-SH]0", "setting": "[2]; 21 days, 180 mg/ml, pH 6.4", "value": 0.90}, {"measurement": "[G-SH]/[G-SH]0", "setting": "[2]; 28 days, 180 mg/ml, pH 6.4", "value": 0.89}, {"measurement": "[G-SH]/[G-SH]0", "setting": "[2]; 56 days, 180 mg/ml, pH 6.4", "value": 0.78}, {"measurement": "[G-SH]/[G-SH]0", "setting": "[2]; 74 days, 180 mg/ml, pH 6.4", "value": 0.68}]}
